Assay results from PubChem BioAssay (NCI).
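Grown in 96-well plates, cells were treated for 48 hours with each compound at five concentrations. Insufficient inhibition: endpoint recorded as highest concentration tested. GI50 is the concentration that inhibits growth by half. Definition used: TGI = concentration required for complete inhibition of growth.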

Experiments:
Test in all cases: NCI anticancer screen, dose series, 48 h
RPMI-8226 leukemia = system: RPMI-8226 leukemia
MDA-MB-231 breast = system: MDA-MB-231 breast
SK-MEL-28 melanoma = system: SK-MEL-28 melanoma
OVCAR-5 ovarian = system: OVCAR-5 ovarian
ACHN renal = system: ACHN renal
K-562 leukemia = system: K-562 leukemia
UACC-62 melanoma = system: UACC-62 melanoma
LOX IMVI melanoma = system: LOX IMVI melanoma
HS 578T breast = system: HS 578T breast
OVCAR-8 ovarian = system: OVCAR-8 ovarian
SK-MEL-2 melanoma = system: SK-MEL-2 melanoma
SF-295 CNS = system: SF-295 CNS
U251 CNS = system: U251 CNS
NCI-H522 lung = system: NCI-H522 lung
SK-OV-3 ovarian = system: SK-OV-3 ovarian
T-47D breast = system: T-47D breast
UO-31 renal = system: UO-31 renal
IGROV1 ovarian = system: IGROV1 ovarian
HOP-92 NSCLC = system: HOP-92 NSCLC
MOLT-4 leukemia = system: MOLT-4 leukemia
SK-MEL-5 melanoma = system: SK-MEL-5 melanoma
HOP-62 NSCLC = system: HOP-62 NSCLC
BT-549 breast = system: BT-549 breast
NCI/ADR-RES ovarian = system: NCI/ADR-RES ovarian
PC-3 prostate = system: PC-3 prostate
SF-268 CNS = system: SF-268 CNS
OVCAR-4 ovarian = system: OVCAR-4 ovarian
NCI-H23 lung = system: NCI-H23 lung
UACC-257 melanoma = system: UACC-257 melanoma
A498 renal = system: A498 renal
HCC-2998 colon = system: HCC-2998 colon
MALME-3M melanoma = system: MALME-3M melanoma
SR leukemia = system: SR leukemia
SF-539 CNS = system: SF-539 CNS
M14 melanoma = system: M14 melanoma
RXF 393 renal = system: RXF 393 renal
SNB-75 CNS = system: SNB-75 CNS
HL-60(TB) leukemia = system: HL-60(TB) leukemia
MCF7 breast = system: MCF7 breast
KM12 colon = system: KM12 colon
HT29 colon = system: HT29 colon
SNB-19 CNS = system: SNB-19 CNS
CAKI-1 renal = system: CAKI-1 renal
DU-145 prostate = system: DU-145 prostate
HCT-15 colon = system: HCT-15 colon
COLO 205 colon = system: COLO 205 colon
EKVX NSCLC = system: EKVX NSCLC
NCI-H460 lung = system: NCI-H460 lung
SW-620 colon = system: SW-620 colon
SN12C renal = system: SN12C renal
OVCAR-3 ovarian = system: OVCAR-3 ovarian
CCRF-CEM leukemia = system: CCRF-CEM leukemia
A549 NSCLC = system: A549 NSCLC
786-0 renal = system: 786-0 renal
HCT-116 colon = system: HCT-116 colon
TK-10 renal = system: TK-10 renal

COc1ccc2c(c1OC)C(=O)OC2C1c2c(c(N)c3c(c2OC)OCO3)CCN1C (configuration not stated)
GI50 (RPMI-8226 leukemia): 3.04 µM | TGI (RPMI-8226 leukemia): 12.2 µM | GI50 (MDA-MB-231 breast): 3.15 µM | TGI (MDA-MB-231 breast): 20.7 µM | GI50 (SK-MEL-28 melanoma): 8.71 µM | TGI (SK-MEL-28 melanoma): > 100 µM | GI50 (OVCAR-5 ovarian): 9.35 µM | TGI (OVCAR-5 ovarian): 38.8 µM | GI50 (ACHN renal): 6.75 µM | TGI (ACHN renal): > 100 µM | GI50 (K-562 leukemia): 4.43 µM | TGI (K-562 leukemia): > 100 µM | GI50 (UACC-62 melanoma): 4.04 µM | TGI (UACC-62 melanoma): > 100 µM | GI50 (LOX IMVI melanoma): 4.8 µM | TGI (LOX IMVI melanoma): 24 µM | GI50 (HS 578T breast): 2.75 µM | TGI (HS 578T breast): 9.39 µM | GI50 (OVCAR-8 ovarian): 3.94 µM | TGI (OVCAR-8 ovarian): 35.2 µM | GI50 (SK-MEL-2 melanoma): 3.17 µM | TGI (SK-MEL-2 melanoma): 28.2 µM | GI50 (SF-295 CNS): 5.59 µM | TGI (SF-295 CNS): 61.8 µM | GI50 (U251 CNS): 3.94 µM | TGI (U251 CNS): > 100 µM | GI50 (NCI-H522 lung): 2.07 µM | TGI (NCI-H522 lung): 5.3 µM | GI50 (SK-OV-3 ovarian): 3.23 µM | TGI (SK-OV-3 ovarian): 23.4 µM | GI50 (T-47D breast): 2.63 µM | TGI (T-47D breast): 19.6 µM | GI50 (UO-31 renal): 5.28 µM | TGI (UO-31 renal): 92.8 µM | GI50 (IGROV1 ovarian): 1.68 µM | TGI (IGROV1 ovarian): 6.68 µM | GI50 (HOP-92 NSCLC): 12.2 µM | TGI (HOP-92 NSCLC): 59.3 µM | GI50 (MOLT-4 leukemia): 4.96 µM | TGI (MOLT-4 leukemia): > 100 µM | GI50 (SK-MEL-5 melanoma): 3.03 µM | TGI (SK-MEL-5 melanoma): 13.2 µM | GI50 (HOP-62 NSCLC): 5.15 µM | TGI (HOP-62 NSCLC): > 100 µM | GI50 (BT-549 breast): 2.32 µM | TGI (BT-549 breast): 9.12 µM | GI50 (NCI/ADR-RES ovarian): 1.58 µM | TGI (NCI/ADR-RES ovarian): 3.2 µM | GI50 (PC-3 prostate): 3.42 µM | TGI (PC-3 prostate): > 100 µM | GI50 (SF-268 CNS): 4.57 µM | TGI (SF-268 CNS): 23 µM | GI50 (OVCAR-4 ovarian): 5.33 µM | TGI (OVCAR-4 ovarian): > 100 µM | GI50 (NCI-H23 lung): 4.74 µM | TGI (NCI-H23 lung): > 100 µM | GI50 (UACC-257 melanoma): 27.3 µM | TGI (UACC-257 melanoma): > 100 µM | GI50 (A498 renal): 2.44 µM | TGI (A498 renal): 13.3 µM | GI50 (HCC-2998 colon): 6.86 µM | TGI (HCC-2998 colon): 28.2 µM | GI50 (MALME-3M melanoma): 6.51 µM | TGI (MALME-3M melanoma): > 100 µM | GI50 (SR leukemia): 3.18 µM | TGI (SR leukemia): 29.2 µM | GI50 (SF-539 CNS): 2.11 µM | TGI (SF-539 CNS): 5.53 µM | GI50 (M14 melanoma): 1.86 µM | TGI (M14 melanoma): 4.41 µM | GI50 (RXF 393 renal): 4.25 µM | TGI (RXF 393 renal): > 100 µM | GI50 (SNB-75 CNS): 2.83 µM | TGI (SNB-75 CNS): 11.9 µM | GI50 (HL-60(TB) leukemia): 4.02 µM | TGI (HL-60(TB) leukemia): 26.4 µM | GI50 (MCF7 breast): 3.11 µM | TGI (MCF7 breast): 16.1 µM | GI50 (KM12 colon): 3.33 µM | TGI (KM12 colon): 62.7 µM | GI50 (HT29 colon): 3.96 µM | TGI (HT29 colon): 52.8 µM | GI50 (SNB-19 CNS): 2.7 µM | TGI (SNB-19 CNS): 9.25 µM | GI50 (CAKI-1 renal): 3.81 µM | TGI (CAKI-1 renal): > 100 µM | GI50 (DU-145 prostate): 2.8 µM | TGI (DU-145 prostate): 12 µM | GI50 (HCT-15 colon): 2.64 µM | TGI (HCT-15 colon): 8.38 µM | GI50 (COLO 205 colon): 5.6 µM | TGI (COLO 205 colon): 26 µM | GI50 (EKVX NSCLC): 5.18 µM | TGI (EKVX NSCLC): > 100 µM | GI50 (NCI-H460 lung): 3.37 µM | TGI (NCI-H460 lung): 11.6 µM | GI50 (SW-620 colon): 3.26 µM | TGI (SW-620 colon): > 100 µM | GI50 (SN12C renal): 4.46 µM | TGI (SN12C renal): 21.9 µM | GI50 (OVCAR-3 ovarian): 4.01 µM | TGI (OVCAR-3 ovarian): 34.6 µM | GI50 (CCRF-CEM leukemia): 2.63 µM | TGI (CCRF-CEM leukemia): 8.44 µM | GI50 (A549 NSCLC): 6.23 µM | TGI (A549 NSCLC): > 100 µM | GI50 (786-0 renal): 7.51 µM | TGI (786-0 renal): > 100 µM | GI50 (HCT-116 colon): 3.19 µM | TGI (HCT-116 colon): 14.6 µM | GI50 (TK-10 renal): 6.57 µM | TGI (TK-10 renal): > 100 µM
